For test [1], the system named is DU-145 prostate cancer cells. Kind of test: NCI in vitro anticancer screen, DU-145 prostate cancer. The test is classed as cell-based. Particulars: Homo sapiens. From the text:
The effects of the analogs on cancer cell growth was investigated in the National Cancer Institute (NCI) Developmental Therapeutics Program's in vitro panel of approximately 55 cell lines (Grever et al., Seminars in Oncology 19:622 (1992), Alley et al., Cancer Research 48:589 (1988) and Montes et al., J. National Cancer Institute 83:757 (1991)). Representative results are listed in Table 1 for HOP-62 non-small-cell lung cancer cells, HCT-116 colon cancer cells, SF-539 central nervous system (CNS) cancer cells, UACC-62 melanoma cells, OVCAR ovarian cancer cells, SN12-C renal cancer cells, DU-145 prostate cancer cells, and MDA-MB-435 breast cancer cells.
^a The cytotoxicity GI50 values are the concentrations

Test [2] addresses T1, estrogen receptor (Rattus norvegicus, UniProt P06211).
T1 construct: from tissue; host or cells: rat uterine cytosol
T1 sequence (P06211 1-600): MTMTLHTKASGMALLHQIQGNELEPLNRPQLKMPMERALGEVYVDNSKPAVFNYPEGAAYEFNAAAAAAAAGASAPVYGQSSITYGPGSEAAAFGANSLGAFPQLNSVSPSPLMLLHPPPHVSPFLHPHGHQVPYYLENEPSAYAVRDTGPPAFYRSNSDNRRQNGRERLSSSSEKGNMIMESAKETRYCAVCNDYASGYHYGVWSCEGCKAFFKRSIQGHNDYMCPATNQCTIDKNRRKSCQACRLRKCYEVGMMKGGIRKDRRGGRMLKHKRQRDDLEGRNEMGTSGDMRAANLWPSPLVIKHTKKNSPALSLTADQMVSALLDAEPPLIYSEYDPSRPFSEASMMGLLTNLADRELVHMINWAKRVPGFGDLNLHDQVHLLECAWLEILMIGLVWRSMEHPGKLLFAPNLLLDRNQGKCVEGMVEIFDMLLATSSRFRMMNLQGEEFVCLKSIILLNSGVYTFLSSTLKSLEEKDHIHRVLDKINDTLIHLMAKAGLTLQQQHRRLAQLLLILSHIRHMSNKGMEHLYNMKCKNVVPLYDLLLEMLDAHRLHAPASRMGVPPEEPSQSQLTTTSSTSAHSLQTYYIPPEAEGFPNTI
Kind of test: Estrogen binding affinity assay (comparative radiometric binding, rat uterine cytosol). The protocol: The assay of (11), (12) and (16) were conducted at 0° C. for 20 hours, while those for (1) and (2) were performed at 0° C. for 18 hours.

For test [3], the system named is K562. The test is described as follows: NCI screen, leukemia. It counts as cell-based. Particulars: Homo sapiens, read-out: Log10 GI50, K562 (converted).
The subject of test [4] is MOLT-4. Kind of test: NCI screen, leukemia. It counts as cell-based. Particulars: Homo sapiens, read-out: Log10 GI50, MOLT-4 (converted).
Test [5] has as its system SR. The test is described as follows: NCI screen, leukemia. It counts as cell-based. The following applies: Homo sapiens, read-out: Log10 GI50, SR (converted).
In test [6] the test system is NCI-H460. The test is described as follows: NCI screen, non-small cell lung cancer. It counts as cell-based. The following applies: Homo sapiens, read-out: Log10 GI50, NCI-H460 (converted).
Test [7] relates to SNB-19. The test is described as follows: NCI screen, CNS cancer. The test is classed as cell-based. Particulars: Homo sapiens, read-out: Log10 GI50, SNB-19 (converted).
Test [8] has as its system U251. The test is described as follows: NCI screen, CNS cancer. The test is classed as cell-based. Particulars: Homo sapiens, U-251, read-out: Log10 GI50, U251 (converted).
Test [9] has as its system LOX IMVI. The test is described as follows: NCI screen, melanoma. It counts as cell-based. Particulars: Homo sapiens, read-out: Log10 GI50, LOX IMVI (converted).
The subject of test [10] is SK-MEL-28. Kind of test: NCI screen, melanoma. The test is classed as cell-based. Particulars: Homo sapiens, read-out: Log10 GI50, SK-MEL-28 (converted).
Test [11] deals with OVCAR-8. The test is described as follows: NCI screen, ovarian cancer. It counts as cell-based. Particulars: Homo sapiens, read-out: Log10 GI50, OVCAR-8 (converted).
Test [12] concerns 786-0. Kind of test: NCI screen, renal cancer. It counts as cell-based. Particulars: Homo sapiens, read-out: Log10 GI50, 786-0 (converted).
Test [13] deals with MCF7/ADR-RES. The test is described as follows: NCI screen, breast cancer. It counts as cell-based. Particulars: Homo sapiens, read-out: Log10 GI50, MCF7/ADR-RES (converted).
In test [14] the test system is HS 578T. Kind of test: NCI screen, breast cancer. The test is classed as cell-based. Particulars: Homo sapiens, read-out: Log10 GI50, HS 578T (converted).
Test [15] has as its system MDA-N. The test is described as follows: NCI screen, breast cancer. Particulars: Homo sapiens, read-out: Log10 GI50, MDA-N (converted). It counts as cell-based.

SMILES strings stand for the structures. Read-outs that look alike come from different tables or passages of the source.

As for `C[C@]12CC[C@@H]3c4cc(OCC(F)(F)F)c(O)cc4C(=NO)C[C@H]3[C@@H]1CC[C@@H]2O` [Compound 12, 2-(2',2', 2'-Trifluoroethoxy)-6-Hydroximino-Estra-1,3,5(10)-Triene-3,17β-Diol], the GI50 is under 0.01 µM in test [1] (DU-145, read-out: cytotoxicity GI50, Prostate DU-145); under 0.01 µM in test [1] (DU-145, Prostate Cancer, read-out: Log10 GI50, DU-145 (converted)); under 0.01 µM in test [3]; under 0.01 µM in [4]; under 0.01 µM in test [5]; under 0.01 µM in test [6]. The GI50 in test [7], in [8], in test [9], in [10], in test [11] and in test [12] was under 0.01 µM throughout. Further, the GI50 in [13], in test [14] and in test [15] was under 0.01 µM throughout. Moreover, in test [2], the “affinity for the estrogen receptor, in words” value is given as “very week affinity for the receptor”.

The record behind these values is US6136992A, “2-alkoxy estradiols and derivatives thereof” (The United States of America as represented by the …, priority 1998, dated 2000).
